Experimental data taken from ChEMBL document CHEMBL3232741, “Isoxazoline containing natural products as anticancer agents: a review” (Eur J Med Chem, 2014).
pEC50, pIC50: −log10 of the molar value. Converted amounts (≈) assume the structure as drawn.

Assays:
U-937 [1] = experiment: Antiproliferative activity against human U937 cells by MTT assay; type: functional, cell-based
Jurkat = experiment: Antiproliferative activity against human Jurkat cells by MTT assay; type: functional, cell-based
U-937 [2] = experiment: Induction of apoptosis in human U937 cells after 24 to 48 hrs by annexin V/propidium iodide staining based flow cytometry; type: functional
KB = experiment: Cytotoxicity against human KB cells; type: functional, cell-based
L1210 = experiment: Cytotoxicity against mouse L1210 cells; type: functional, cell-based
HeLa = experiment: Cytotoxicity against human HeLa cells; type: functional, cell-based
[3] = molecular target: T1, Adenosine receptor A1 (Homo sapiens) (UniProt P30542); experiment: Displacement of [3H]DPCPX from adenosine A1 receptor in human HeLa cells at 100 uM by whole cell binding assay; type: cell-based
T1 sequence (whole entry): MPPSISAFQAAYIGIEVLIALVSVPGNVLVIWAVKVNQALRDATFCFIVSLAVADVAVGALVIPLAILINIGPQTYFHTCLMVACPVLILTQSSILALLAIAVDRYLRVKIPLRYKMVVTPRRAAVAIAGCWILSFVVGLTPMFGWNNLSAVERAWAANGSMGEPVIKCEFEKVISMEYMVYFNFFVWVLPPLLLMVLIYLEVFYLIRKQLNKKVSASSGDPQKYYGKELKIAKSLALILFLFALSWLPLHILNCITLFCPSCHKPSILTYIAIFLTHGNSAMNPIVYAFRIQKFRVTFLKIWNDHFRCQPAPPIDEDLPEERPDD

P388 = experiment: Cytotoxicity against mouse P388 cells; type: functional, cell-based

SMILES: COC1=C(Br)[C@H](O)[C@@]2(C=C1Br)CC(C(=O)NCCCOc1c(Br)cc(C(O)CNC(=O)C3=NO[C@]4(C=C(Br)C(OC)=C(Br)[C@@H]4O)C3)cc1Br)=NO2 (stereo not given in full)
- pIC50 (U-937 [1]): 5.09
- pIC50 (Jurkat): 5.09
- Activity (U-937 [2]): 35%

SMILES: COC1=C(Br)[C@H](O)[C@@]2(C=C1Br)CC(C(=O)NCCc1c(Br)cc(OCCCN(C)C)cc1Br)=NO2 [PUREALIDIN Q]
- IC50 (KB): 1.2 µg/mL (≈ 1.61 µM)
- IC50 (L1210): 0.95 µg/mL (≈ 1.27 µM)

SMILES: COC1=C(Br)[C@H](O)[C@@]2(C=C1Br)CC(C(=O)NCCCOc1c(Br)cc(CCNS(=O)(=O)O)cc1Br)=NO2
- pEC50 (HeLa): 4.22
- inhibition [3]: 61%

SMILES: COC1=C(Br)[C@H](O)[C@@]2(C=C1Br)CC(C(=O)NCCCOc1c(Br)cc(CCNC(=O)C3=NO[C@]4(C=C(Br)C(OC)=C(Br)[C@@H]4O)C3)cc1Br)=NO2
- pEC50 (HeLa): 5.59

SMILES: COC1=C(Br)[C@H](O)[C@@]2(C=C1Br)CC(C(=O)NCCCOc1c(Br)cc(CCN(C)C)cc1Br)=NO2
- IC50 (KB): 7.6 µg/mL (≈ 10.2 µM)
- IC50 (L1210): 2.8 µg/mL (≈ 3.76 µM)

SMILES: COC1=C(Br)[C@H](O)[C@@]2(C=C1Br)CC(C(=O)NCCCCNC(=O)C1=NO[C@]3(C=C(Br)C(OC)=C(Br)[C@@H]3O)C1)=NO2 [AEROTHIONIN]
- pEC50 (HeLa): 4.38

SMILES: COC1=C(Br)C[C@]2(OC=C1Br)ON=C(C(=O)NCCCOc1c(Br)cc(CCNC=C3C(=O)C=CC3=O)cc1Br)[C@@H]2O (relative stereo)
- IC50 (P388): 2.1 µg/mL (≈ 2.5 µM)

SMILES: COC1=C(Br)[C@H](O)[C@@]2(C=C1Br)CC(C(=O)NCC(O)COc1c(Br)cc(C(O)CNC(=O)C3=NO[C@]4(C=C(Br)C(OC)=C(Br)[C@@H]4O)C3)cc1Br)=NO2 (stereo not given in full)
- pIC50 (U-937 [1]): 5.13
- pIC50 (Jurkat): 5.13
- Activity (U-937 [2]): 35%
